Values of other authors in patent publication US20210155895A1, “Pluripotent Stem Cell-Derived 3D Retinal Tissue and Uses Thereof” (LINEAGE CELL THERAPEUTICS, INC., priority 2016, published 2021).
Each block holds one compound with its values, some of them ahead of it.

How the values were obtained:
histone H3 = details: Koriyama et al. 2014
PR (photoreceptors) = details: zaprinast 100 μM

SMILES: CN(N=O)C(N)=O [MNU, N-methyl, N-nitrosourea]
- time to PR cell death after application (PR (photoreceptor) cells): ≤ 7 days
- PR cell death (PR (photoreceptor) cells; involving the caspase pathway): selective and progressive PR cell death

SMILES: CCCC(CCC)C(=O)O [valproic acid]
- effect on histone H3 acetylation (histone H3): induces histone H3 acetylation

- effect on intracellular cGMP (PR (photoreceptors)): raises intracellular cGMP
SMILES: CCCOc1ccccc1-c1nc2nn[nH]c2c(=O)[nH]1 [zaprinast]
- PR degeneration (PR (photoreceptors)): induces PR degeneration at a level comparable to that observed in the mouse rd1 model
